Data: PMC8222254, “Self-assembly of an anion receptor with metal-dependent kinase inhibition and potent in vitro anti-cancer properties” (Nature Communications, 2021)
“And” between values parts separate entries of the source, which are not always exact repeats. Equal values may be shown once.

Legend:
Test in all cases: Kinase inhibition screen, cell-free 33P ATP assay at 10 μM
Assay type in all cases: biochemical
[1] = target: 140 purified human kinases (Homo sapiens, UniProt P53779)
Outline: (§1)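 Radiometric ^33P ATP cell-free format with purified enzymes; both complexes run at 10 μM in duplicate, results plotted on a kinome map via HGNC symbols.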

[2] = target: 140 purified human kinases (Homo sapiens, UniProt P48730); details: CK1δ; for % Activity Run 1 / % Activity Run 2: 10 µM
Chain of 140 purified human kinases (Homo sapiens, UniProt P48730) (P48730 whole entry): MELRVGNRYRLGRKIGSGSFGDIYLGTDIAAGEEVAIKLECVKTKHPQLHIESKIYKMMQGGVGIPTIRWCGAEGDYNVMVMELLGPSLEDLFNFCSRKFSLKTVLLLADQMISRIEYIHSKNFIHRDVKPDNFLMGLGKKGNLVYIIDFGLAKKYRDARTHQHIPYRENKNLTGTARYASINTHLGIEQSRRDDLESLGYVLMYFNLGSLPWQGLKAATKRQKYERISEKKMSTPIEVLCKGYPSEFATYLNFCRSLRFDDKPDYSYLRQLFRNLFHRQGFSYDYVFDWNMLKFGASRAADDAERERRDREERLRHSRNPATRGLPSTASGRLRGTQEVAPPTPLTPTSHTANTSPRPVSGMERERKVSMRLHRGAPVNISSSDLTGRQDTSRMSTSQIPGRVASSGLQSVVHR
Outline: as §1

[3] = target: 140 purified human kinases (Homo sapiens, UniProt P78368)
Chain of 140 purified human kinases (Homo sapiens, UniProt P78368) (P78368 whole entry): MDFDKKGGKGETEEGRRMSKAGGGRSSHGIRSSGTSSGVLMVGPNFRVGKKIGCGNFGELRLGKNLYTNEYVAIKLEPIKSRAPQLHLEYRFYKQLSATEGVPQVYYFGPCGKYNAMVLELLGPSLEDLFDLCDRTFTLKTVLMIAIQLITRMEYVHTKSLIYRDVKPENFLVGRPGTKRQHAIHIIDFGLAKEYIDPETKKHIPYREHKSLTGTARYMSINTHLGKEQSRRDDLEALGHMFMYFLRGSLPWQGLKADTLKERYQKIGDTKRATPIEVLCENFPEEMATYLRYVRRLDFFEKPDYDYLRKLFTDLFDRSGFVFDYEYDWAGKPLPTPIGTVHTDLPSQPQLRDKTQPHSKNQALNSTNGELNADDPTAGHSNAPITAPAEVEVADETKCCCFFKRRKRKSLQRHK
Outline: as §1

[4] = target: 140 purified human kinases (Homo sapiens, UniProt Q16539); details: p38a MAPK
Chain of 140 purified human kinases (Homo sapiens, UniProt Q16539) (Q16539 whole entry): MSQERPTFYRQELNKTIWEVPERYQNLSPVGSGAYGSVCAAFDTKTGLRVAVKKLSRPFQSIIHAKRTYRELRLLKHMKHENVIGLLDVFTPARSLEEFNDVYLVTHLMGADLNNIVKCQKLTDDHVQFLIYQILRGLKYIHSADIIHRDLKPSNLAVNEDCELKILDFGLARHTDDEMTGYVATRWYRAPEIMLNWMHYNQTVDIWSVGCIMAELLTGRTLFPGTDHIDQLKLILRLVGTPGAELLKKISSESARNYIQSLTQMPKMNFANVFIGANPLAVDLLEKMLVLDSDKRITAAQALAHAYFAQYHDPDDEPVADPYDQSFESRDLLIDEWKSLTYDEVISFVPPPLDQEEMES
Outline: as §1

[5] = target: 140 purified human kinases (Homo sapiens, UniProt Q96SB4)
Chain of 140 purified human kinases (Homo sapiens, UniProt Q96SB4) (Q96SB4 whole entry): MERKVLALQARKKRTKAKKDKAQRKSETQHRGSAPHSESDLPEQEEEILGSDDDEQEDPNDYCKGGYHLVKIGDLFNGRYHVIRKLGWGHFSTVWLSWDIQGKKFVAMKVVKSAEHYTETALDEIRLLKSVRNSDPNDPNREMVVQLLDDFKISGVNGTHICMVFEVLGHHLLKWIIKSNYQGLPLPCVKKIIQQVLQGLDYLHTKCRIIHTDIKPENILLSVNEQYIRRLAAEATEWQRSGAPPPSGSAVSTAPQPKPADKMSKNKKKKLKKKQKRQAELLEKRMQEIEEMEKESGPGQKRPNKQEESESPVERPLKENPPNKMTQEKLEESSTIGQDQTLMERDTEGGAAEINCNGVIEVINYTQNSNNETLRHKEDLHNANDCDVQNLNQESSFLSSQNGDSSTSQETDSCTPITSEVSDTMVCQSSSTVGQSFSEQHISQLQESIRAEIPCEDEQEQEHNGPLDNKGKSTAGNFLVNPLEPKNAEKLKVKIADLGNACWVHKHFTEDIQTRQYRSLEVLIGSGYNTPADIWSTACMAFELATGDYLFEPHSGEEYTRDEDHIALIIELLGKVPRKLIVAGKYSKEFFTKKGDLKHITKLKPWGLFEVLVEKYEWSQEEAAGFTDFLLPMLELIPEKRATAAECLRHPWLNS
Outline: as §1

[6] = target: 140 purified human kinases (Homo sapiens, UniProt Q9BUB5)
Chain of 140 purified human kinases (Homo sapiens, UniProt Q9BUB5) (Q9BUB5 whole entry): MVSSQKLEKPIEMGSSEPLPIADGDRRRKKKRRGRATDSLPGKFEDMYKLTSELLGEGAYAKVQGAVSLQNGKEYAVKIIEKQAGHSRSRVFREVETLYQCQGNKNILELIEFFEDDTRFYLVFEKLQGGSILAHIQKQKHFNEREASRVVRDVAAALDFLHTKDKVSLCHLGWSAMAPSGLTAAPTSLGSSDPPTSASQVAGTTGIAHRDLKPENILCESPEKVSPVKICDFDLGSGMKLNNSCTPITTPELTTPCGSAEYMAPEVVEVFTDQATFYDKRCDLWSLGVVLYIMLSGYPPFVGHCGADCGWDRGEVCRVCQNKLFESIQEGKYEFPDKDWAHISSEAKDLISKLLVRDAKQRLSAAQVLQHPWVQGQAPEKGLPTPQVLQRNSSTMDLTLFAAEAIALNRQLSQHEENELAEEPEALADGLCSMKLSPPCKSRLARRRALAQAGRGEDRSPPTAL
Outline: as §1

[7] = target: 140 purified human kinases (Homo sapiens, UniProt P17252); details: PKCa
Outline: as §1

[8] = target: T1, 140 purified human kinases (Homo sapiens, UniProt O00141)
T1 sequence (O00141 1-431): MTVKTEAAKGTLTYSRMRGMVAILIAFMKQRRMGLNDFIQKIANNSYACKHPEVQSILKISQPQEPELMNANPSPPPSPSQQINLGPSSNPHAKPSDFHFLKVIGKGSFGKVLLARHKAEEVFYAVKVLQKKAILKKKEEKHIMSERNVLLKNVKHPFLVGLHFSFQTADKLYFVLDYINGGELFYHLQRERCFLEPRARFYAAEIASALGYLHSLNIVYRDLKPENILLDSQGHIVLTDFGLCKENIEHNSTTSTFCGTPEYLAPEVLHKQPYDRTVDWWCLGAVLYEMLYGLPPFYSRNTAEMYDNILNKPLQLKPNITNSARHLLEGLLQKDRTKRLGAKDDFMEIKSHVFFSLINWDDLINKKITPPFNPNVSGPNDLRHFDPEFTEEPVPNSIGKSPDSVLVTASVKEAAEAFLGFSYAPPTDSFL
Outline: as §1

[9] = target: 140 purified human kinases (Homo sapiens, UniProt P49137)
Chain of 140 purified human kinases (Homo sapiens, UniProt P49137) (P49137 whole entry): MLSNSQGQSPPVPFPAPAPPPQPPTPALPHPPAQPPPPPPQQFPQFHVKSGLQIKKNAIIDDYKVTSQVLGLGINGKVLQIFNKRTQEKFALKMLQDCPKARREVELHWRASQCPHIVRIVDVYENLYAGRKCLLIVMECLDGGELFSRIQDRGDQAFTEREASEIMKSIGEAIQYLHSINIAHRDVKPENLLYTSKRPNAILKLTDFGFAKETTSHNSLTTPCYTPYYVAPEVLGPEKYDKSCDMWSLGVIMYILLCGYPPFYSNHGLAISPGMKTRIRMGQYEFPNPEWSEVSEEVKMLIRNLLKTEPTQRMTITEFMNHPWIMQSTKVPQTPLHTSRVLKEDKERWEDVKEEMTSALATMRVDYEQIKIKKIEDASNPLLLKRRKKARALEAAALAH
Outline: as §1

[10] = target: 140 purified human kinases (Homo sapiens, UniProt P00519); details: ABL
Outline: as §1

[11] = target: 140 purified human kinases (Homo sapiens, UniProt Q9P289)
Chain of 140 purified human kinases (Homo sapiens, UniProt Q9P289) (Q9P289 whole entry): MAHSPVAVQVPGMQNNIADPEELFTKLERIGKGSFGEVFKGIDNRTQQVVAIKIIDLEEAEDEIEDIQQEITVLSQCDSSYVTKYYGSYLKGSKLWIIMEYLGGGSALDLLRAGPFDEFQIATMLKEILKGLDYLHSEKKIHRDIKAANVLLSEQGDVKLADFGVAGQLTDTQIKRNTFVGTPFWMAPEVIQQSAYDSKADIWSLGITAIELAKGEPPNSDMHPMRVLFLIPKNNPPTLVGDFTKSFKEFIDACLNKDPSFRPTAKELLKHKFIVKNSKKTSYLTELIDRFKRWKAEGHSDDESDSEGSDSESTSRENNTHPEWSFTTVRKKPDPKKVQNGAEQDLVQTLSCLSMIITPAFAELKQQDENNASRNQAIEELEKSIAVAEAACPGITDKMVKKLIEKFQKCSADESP
Outline: as §1

Chain of 140 purified human kinases (Homo sapiens, UniProt P53779) (P53779 whole entry): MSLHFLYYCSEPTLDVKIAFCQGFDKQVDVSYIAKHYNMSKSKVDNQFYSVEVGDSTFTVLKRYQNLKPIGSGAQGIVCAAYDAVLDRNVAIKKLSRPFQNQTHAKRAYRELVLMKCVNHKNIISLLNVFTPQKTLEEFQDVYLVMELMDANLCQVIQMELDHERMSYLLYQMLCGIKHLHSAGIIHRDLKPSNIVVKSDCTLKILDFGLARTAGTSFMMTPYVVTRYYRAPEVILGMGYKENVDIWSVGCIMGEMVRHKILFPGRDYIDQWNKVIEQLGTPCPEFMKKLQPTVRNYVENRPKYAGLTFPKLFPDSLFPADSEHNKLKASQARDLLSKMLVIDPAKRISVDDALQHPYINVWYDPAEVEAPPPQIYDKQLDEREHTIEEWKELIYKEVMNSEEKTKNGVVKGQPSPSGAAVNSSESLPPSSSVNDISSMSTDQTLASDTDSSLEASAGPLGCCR

[Cu+2].[Cu+2].[Cu+2].c1ccc(-c2csc(NCCN(CCNc3nc(-c4ccccn4)cs3)CCNc3nc(-c4ccccn4)cs3)n2)nc1.c1ccc(-c2csc(NCCN(CCNc3nc(-c4ccccn4)cs3)CCNc3nc(-c4ccccn4)cs3)n2)nc1 [[L2Cu3]6+]
% Inhibition Run 1 ([1]; JNK3): 62% | % Inhibition Run 2 ([1]; JNK3): 41.6% | % Inhibition, Mean ([1]; JNK3): 52% | mean % activity ([1]; JNK3): 48% | % activity ([1]; JNK3, Run 1): 38% | % activity ([1]; JNK3, Run 2): 58.4% | % Activation, Mean value [2]: 12% | % Inhibition Run 1 [2]: -26.4% | % Inhibition Run 2 [2]: 2.3% | % Inhibition, Mean [2]: -12% | mean % activity [2]: 112% | % activity ([2]; Run 1): 126.4% | % activity ([2]; Run 2): 97.7% | % Activity Run 1 [2]: 126.40% | % Activity Run 2 [2]: 97.70% | % Inhibition Run 1 ([3]; CK1γ2): 23.7% | % Inhibition Run 2 ([3]; CK1γ2): 10.8% | % Inhibition, Mean ([3]; CK1γ2): 17% | mean % activity ([3]; CK1γ2): 83% | % activity ([3]; CK1γ2, Run 1): 76.3% | % activity ([3]; CK1γ2, Run 2): 89.2% | % Inhibition Run 1 [4]: 12.7% | % Inhibition Run 2 [4]: -5.2% | % Inhibition, Mean [4]: 3.75% | mean % activity [4]: 96% | % activity ([4]; Run 1): 87.3% | % activity ([4]; Run 2): 105.2% | % Inhibition Run 1 ([5]; SRPK1): 58.1% | % Inhibition Run 2 ([5]; SRPK1): 50.4% | % Inhibition, Mean ([5]; SRPK1): 54% | mean % activity ([5]; SRPK1): 46% | % activity ([5]; SRPK1, Run 1): 41.9% | % activity ([5]; SRPK1, Run 2): 49.6% | % Inhibition Run 1 ([6]; MNK1): 85.8% | % Inhibition Run 2 ([6]; MNK1): 80.4% | % Inhibition, Mean ([6]; MNK1): 83% | mean % activity ([6]; MNK1): 17% | % activity ([6]; MNK1, Run 1): 14.2% | % activity ([6]; MNK1, Run 2): 19.6% | % Inhibition Run 1 [7]: 45.4% | % Inhibition Run 2 [7]: 66.7% | % Inhibition, Mean [7]: 56% | mean % activity [7]: 44% | % activity ([7]; Run 1): 54.6% | % activity ([7]; Run 2): 33.3% | % Inhibition Run 1 ([8]; SGK1): 85.6% | % Inhibition Run 2 ([8]; SGK1): 88.5% | % Inhibition, Mean ([8]; SGK1): 87% | mean % activity ([8]; SGK1): 13% | % activity ([8]; SGK1, Run 1): 14.4% | % activity ([8]; SGK1, Run 2): 11.5% | % Inhibition Run 1 ([9]; MAPKAP-K2): 97.8% | % Inhibition Run 2 ([9]; MAPKAP-K2): 98.1% | % Inhibition, Mean ([9]; MAPKAP-K2): 98% | mean % activity ([9]; MAPKAP-K2): 2% | % activity ([9]; MAPKAP-K2, Run 1): 2.2% | % activity ([9]; MAPKAP-K2, Run 2): 1.9% | % Activity inhibition Mean ([9]; MAPKAP-K2, 10 µM): 97.9% | % Activity inhibition Run 1 ([9]; MAPKAP-K2, 10 µM): 97.8% | % Activity inhibition Run 2 ([9]; MAPKAP-K2, 10 µM): 98.1% | % Activity remaining Run 1 ([9]; MAPKAP-K2, 10 µM): 2.20% | % Activity remaining Run 2 ([9]; MAPKAP-K2, 10 µM): 1.90% | % Activation, Mean value [10]: 17% | % Inhibition Run 1 [10]: -27.4% | % Inhibition Run 2 [10]: -7.5% | % Inhibition, Mean [10]: -17% | mean % activity [10]: 117% | % activity ([10]; Run 1): 127.4% | % activity ([10]; Run 2): 107.5% | % Activity Run 1 ([10]; 10 µM): 127.40% | % Activity Run 2 ([10]; 10 µM): 107.50% | % Inhibition Run 1 ([11]; MST4): 74.5% | % Inhibition Run 2 ([11]; MST4): 70.2% | % Inhibition, Mean ([11]; MST4): 72% | mean % activity ([11]; MST4): 28% | % activity ([11]; MST4, Run 1): 25.5% | % activity ([11]; MST4, Run 2): 29.8%

CC(=O)[O-].CC(=O)[O-].CC(=O)[O-].CC(=O)[O-].CC(=O)[O-].CC(=O)[O-].[Zn+2].[Zn+2].[Zn+2].c1ccc(-c2csc(NCCN(CCNc3nc(-c4ccccn4)cs3)CCNc3nc(-c4ccccn4)cs3)n2)nc1.c1ccc(-c2csc(NCCN(CCNc3nc(-c4ccccn4)cs3)CCNc3nc(-c4ccccn4)cs3)n2)nc1 [[L2Zn3]6+]
% Inhibition, Mean ([1]; JNK3): 33% | % Inhibition, Run 1 / Run 2 ([1]; JNK3): 42% and 24% | mean % activity ([1]; JNK3): 67% | % activity ([1]; JNK3, duplicate runs): 58% and 76% | % Activation, Mean value [2]: 19% | % Inhibition, Mean [2]: -19% | mean % activity [2]: 119% | % Activity Run 1 [2]: 131.0% | % Activity Run 2 [2]: 107.0% | % activity ([2]; duplicate runs): 131% and 107% | % Inhibition, Mean ([3]; CK1γ2): 12% | mean % activity ([3]; CK1γ2): 88% | % activity ([3]; CK1γ2, duplicate runs): 82% and 94% | % Inhibition, Mean [4]: 16% | mean % activity [4]: 84% | % activity ([4]; duplicate runs): 72% and 95% | % Inhibition, Mean ([5]; SRPK1): 35% | mean % activity ([5]; SRPK1): 66% | % activity ([5]; SRPK1, duplicate runs): 53% and 78% | % Activation, Mean value ([6]; MNK1): 14% | % Inhibition, Mean ([6]; MNK1): -14% | % Inhibition, Run 1 / Run 2 ([6]; MNK1): -12% and -15% | mean % activity ([6]; MNK1): 114% | % Activity Run 1 ([6]; MNK1, 10 µM): 112.0% | % Activity Run 2 ([6]; MNK1, 10 µM): 115.0% | % activity ([6]; MNK1, duplicate runs): 112% and 115% | % Inhibition, Mean [7]: 42% | % Inhibition, Run 1 / Run 2 [7]: 45% and 40% | mean % activity [7]: 58% | % activity ([7]; duplicate runs): 56% and 60% | % Inhibition, Mean ([8]; SGK1): 37% | % Inhibition, Run 1 / Run 2 ([8]; SGK1): 43% and 32% | mean % activity ([8]; SGK1): 63% | % activity ([8]; SGK1, duplicate runs): 57% and 68% | % Inhibition, Mean ([9]; MAPKAP-K2): 41% | % Inhibition, Run 1 / Run 2 ([9]; MAPKAP-K2): 47% and 35% | mean % activity ([9]; MAPKAP-K2): 60% | % activity ([9]; MAPKAP-K2, duplicate runs): 54% and 66% | % Inhibition, Mean [10]: 9% | mean % activity [10]: 91% | % activity ([10]; duplicate runs): 81% and 100% | % Inhibition, Mean ([11]; MST4): 23% | % Inhibition, Run 1 / Run 2 ([11]; MST4): 26% and 19% | mean % activity ([11]; MST4): 77% | % activity ([11]; MST4, duplicate runs): 74% and 81%
